Assays:
Test in all cases: NCI 60 cell line single dose screen (SRB)
Assay type in all cases: cell-based
[1] = test system: RPMI-8226; details: Homo sapiens; RPMI-8226 (leukemia), single dose 10^−5 M, 48 h; read-out: Growth inhibition percentage
Method: (§1) Anticancer activity screening of the newly synthesised compounds was measured in vitro utilising 60 different human tumour cell lines provided by US National Cancer Institute according to previously reported standard procedure[27–29] as follows: Cells are inoculated into 96-well microtitre plates in 100 ml. After cell inoculation, the microtitre plates are incubated at 37 °C, 5% CO2, 95% air and 100% relative humidity for 24 h prior to addition of experimental compounds. After 24 h, two plates of each cell line are fixed in situ with TCA, to represent a measurement of the cell population for each cell line at the time of drug addition (Tz). Experimental compounds are solubilised in dimethyl sulphoxide at 400-fold the desired final maximum test concentration and stored frozen prior to use. At the time of compound addition, an aliquot of frozen concentrate is thawed and diluted to twice the desired final maximum test concentration with complete medium containing […] gentamicin. Aliquots of […] of the compounds dilutions are added to the appropriate microtitre wells already containing 100 ml of medium, resulting in the required final compound concentration. Following compound addition, the plates are incubated for an additional 48 h at 37 °C, 5% CO2, 95% air, and 100% relative humidity. For adherent cells, the assay is terminated by the addition of cold trichloroacetic acid (TCA). Cells are fixed in situ by the gentle addition of 50 ml of cold 50% (w/v) TCA (final concentration, 10% TCA) and incubated for 60 min at 4 °C. The supernatant is discarded, and the plates are washed five times with tap water and air-dried. Sulphorhodamine B (SRB) solution (100 ml) at 0.4% (w/v) in 1% acetic acid is added to each well, and plates are incubated for 10 min at room temperature. After staining, unbound dye is removed by washing five times with 1% acetic acid and the plates are air-dried. Bound stain is subsequently solubilised with 10 mM trizma base, and the absorbance is read on an automated plate reader at a wavelength of 515 nm. For suspension cells, the methodology is the same except that the assay is terminated by fixing settled cells at the bottom of the wells by gently adding 50 ml of 80% TCA (final concentration, 16% TCA). Using the absorbance measurements [time zero, (Tz), control growth, (C), and test growth in the presence of compound (Ti)], the percentage growth is calculated for each compound. Percentage growth inhibition is calculated as: [(Ti – Tz)/(C – Tz)] x 100 for concentrations for which Ti >/=Tz. [(Ti – Tz)/Tz] x 100 for concentrations for which Ti < Tz.

[2] = test system: MDA-MB-231/ATCC; details: Homo sapiens; MDA-MB-231/ATCC (breast cancer), single dose 10^−5 M, 48 h; read-out: Growth inhibition percentage
Method: as §1

[3] = test system: BT-549; details: Homo sapiens; BT-549 (breast cancer), single dose 10^−5 M, 48 h; read-out: Growth inhibition percentage
Method: as §1

[4] = test system: M14; details: Homo sapiens; M14 (melanoma), single dose 10^−5 M, 48 h; read-out: Growth inhibition percentage
Method: as §1

[5] = test system: HCT-15; details: Homo sapiens; HCT-15 (colon cancer), single dose 10^−5 M, 48 h; read-out: Growth inhibition percentage
Method: as §1

[6] = test system: SN12C; details: Homo sapiens; SN12C (renal cancer), single dose 10^−5 M, 48 h; read-out: Growth inhibition percentage
Method: as §1

[7] = test system: SNB-75; details: Homo sapiens; SNB-75 (CNS cancer), single dose 10^−5 M, 48 h; read-out: Growth inhibition percentage
Method: as §1

[8] = test system: SK-MEL-2; details: Homo sapiens; SK-MEL-2 (melanoma), single dose 10^−5 M, 48 h; read-out: Growth inhibition percentage
Method: as §1

[9] = test system: ACHN; details: Homo sapiens; ACHN (renal cancer), single dose 10^−5 M, 48 h; read-out: Growth inhibition percentage
Method: as §1

[10] = test system: MOLT-4; details: Homo sapiens; MOLT-4 (leukemia), single dose 10^−5 M, 48 h; read-out: Growth inhibition percentage
Method: as §1

[11] = test system: UO-31; details: Homo sapiens; UO-31 (renal cancer), single dose 10^−5 M, 48 h; read-out: Growth inhibition percentage
Method: as §1

[12] = test system: MDA-MB-435; details: Homo sapiens; MDA-MB-435 (melanoma), single dose 10^−5 M, 48 h; read-out: Growth inhibition percentage
Method: as §1

[13] = test system: NCI-H460; details: Homo sapiens; NCI-H460 (non-small cell lung cancer), single dose 10^−5 M, 48 h; read-out: Growth inhibition percentage
Method: as §1

[14] = test system: SW-620; details: Homo sapiens; SW-620 (colon cancer), single dose 10^−5 M, 48 h; read-out: Growth inhibition percentage
Method: as §1

[15] = test system: RXF 393; details: Homo sapiens; RXF 393 (renal cancer), single dose 10^−5 M, 48 h; read-out: Growth inhibition percentage
Method: as §1

[16] = test system: MDA-MB-468; details: Homo sapiens; MDA-MB-468 (breast cancer), single dose 10^−5 M, 48 h; read-out: Growth inhibition percentage
Method: as §1

[17] = test system: CCRF-CEM; details: Homo sapiens; CCRF-CEM (leukemia), single dose 10^−5 M, 48 h; read-out: Growth inhibition percentage
Method: as §1

[18] = test system: SK-MEL-5; details: Homo sapiens; SK-MEL-5 (melanoma), single dose 10^−5 M, 48 h; read-out: Growth inhibition percentage
Method: as §1

[19] = test system: SF-295; details: Homo sapiens; SF-295 (CNS cancer), single dose 10^−5 M, 48 h; read-out: Growth inhibition percentage
Method: as §1

[20] = test system: K-562; details: Homo sapiens, K562; K-562 (leukemia), single dose 10^−5 M, 48 h; read-out: Growth inhibition percentage
Method: as §1

[21] = test system: HOP-92; details: Homo sapiens; HOP-92 (non-small cell lung cancer), single dose 10^−5 M, 48 h; read-out: Growth inhibition percentage
Method: as §1

What does the source list for Cc1nn(-c2ccc(F)cc2)c2ncnc(N3CCN(c4ccc(Cl)cc4)CC3)c12 [Compound 8c, 4–(4-(4-Chlorophenyl)piperazin-1-yl)-1–(4-fluorophenyl)-3-methyl-1H-pyrazolo[3,4-d]pyrimidine]?
inhibition at 10 µM [1]: -8.37%; inhibition at 10 µM [2]: 7.92%; inhibition at 10 µM [3]: -4.23%; inhibition at 10 µM [4]: -0.94%; inhibition at 10 µM [5]: -8.49%; inhibition at 10 µM [6]: 13.3%; inhibition at 10 µM [7]: 0.02%; inhibition at 10 µM [8]: 9.37%; inhibition at 10 µM [9]: 2.13%; inhibition at 10 µM [10]: 7.19%; inhibition at 10 µM [11]: 34.9%; inhibition at 10 µM [12]: -14.5%; inhibition at 10 µM [13]: -4.35%; inhibition at 10 µM [14]: -3.16%; inhibition at 10 µM [15]: -16.5%; inhibition at 10 µM [16]: -3.83%; inhibition at 10 µM [17]: -8.74%; inhibition at 10 µM [18]: 5.22%; inhibition at 10 µM [19]: -0.93%; inhibition at 10 µM [20]: 11.4%; inhibition at 10 µM [21]: 15.9%

Which results are given for Cc1nn(-c2ccc(F)cc2)c2ncnc(N)c12 [Compound 4, 1–(4-Fluorophenyl)-3-methyl-1H-pyrazolo[3,4-d]pyrimidin-4-amine]?
inhibition at 10 µM [1]: -17.5%; inhibition at 10 µM [2]: -10.8%; inhibition at 10 µM [3]: 9.79%; inhibition at 10 µM [4]: -3.62%; inhibition at 10 µM [5]: -4.62%; inhibition at 10 µM [6]: -1.4%; inhibition at 10 µM [7]: 8.18%; inhibition at 10 µM [8]: 1.74%; inhibition at 10 µM [9]: 0.98%; inhibition at 10 µM [10]: 0.58%; inhibition at 10 µM [11]: 11.3%; inhibition at 10 µM [12]: -5.15%; inhibition at 10 µM [13]: -9.3%; inhibition at 10 µM [14]: -18.7%; inhibition at 10 µM [15]: -17.3%; inhibition at 10 µM [16]: -13.2%; inhibition at 10 µM [17]: -12.7%; inhibition at 10 µM [18]: 2%; inhibition at 10 µM [19]: -3.53%; inhibition at 10 µM [20]: 1.98%; inhibition at 10 µM [21]: -1.54%

How did the inhibition at 10 µM [1] turn out when Cc1nn(-c2ccc(F)cc2)c2nc[nH]c(=O)c12 [Compound 3, 1–(4-Fluorophenyl)-3-methyl-1H-pyrazolo[3,4-d]pyrimidin-4(5H)-one] was run?
The inhibition at 10 µM was -10.2%.

What about the inhibition at 10 µM [2] of the same molecule?
Its inhibition at 10 µM is -9.78%.

And the inhibition at 10 µM [3]?
The inhibition at 10 µM was -3.59%.

What about the inhibition at 10 µM [4] of the same molecule?
Its inhibition at 10 µM is -7.65%.

And the inhibition at 10 µM [5]?
The inhibition at 10 µM was -6.88%.

What about the inhibition at 10 µM [6] of the same molecule?
The inhibition at 10 µM was -2.5%.

What about the inhibition at 10 µM [7] of the same molecule?
The inhibition at 10 µM was 0.29%.

And the inhibition at 10 µM [8]?
Its inhibition at 10 µM is -5.1%.

And the inhibition at 10 µM [9]?
Its inhibition at 10 µM is -4.68%.

What about the inhibition at 10 µM [10] of the same molecule?
Its inhibition at 10 µM is 3.3%.

What about the inhibition at 10 µM [11] of the same molecule?
Its inhibition at 10 µM is 11.7%.

And the inhibition at 10 µM [12]?
Its inhibition at 10 µM is -7.05%.

What about the inhibition at 10 µM [13] of the same molecule?
Its inhibition at 10 µM is -9.62%.

What about the inhibition at 10 µM [14] of the same molecule?
The inhibition at 10 µM was -12.3%.

And the inhibition at 10 µM [15]?
The inhibition at 10 µM was -11.4%.

And the inhibition at 10 µM [16]?
Its inhibition at 10 µM is -11.5%.

What about the inhibition at 10 µM [17] of the same molecule?
Its inhibition at 10 µM is -1.13%.

What about the inhibition at 10 µM [18] of the same molecule?
Its inhibition at 10 µM is 0.31%.

What about the inhibition at 10 µM [19] of the same molecule?
The inhibition at 10 µM was -4.14%.

And the inhibition at 10 µM [20]?
Its inhibition at 10 µM is 1.69%.

What about the inhibition at 10 µM [21] of the same molecule?
Its inhibition at 10 µM is 10.3%.

Which inhibition at 10 µM [1] does the source give for COc1cc(C=NNc2ncnc3c2c(C)nn3-c2ccc(F)cc2)cc(OC)c1OC [Compound 10c, 1–(4-Fluorophenyl)-3-methyl-4–(2-(3,4,5-trimethoxybenzylidene)-hydrazinyl)-1H-pyrazolo[3,4-d]pyrimidine] here?
The inhibition at 10 µM was 1.29%.

What about the inhibition at 10 µM [2] of the same molecule?
Its inhibition at 10 µM is 16.5%.

And the inhibition at 10 µM [3]?
Its inhibition at 10 µM is -1.06%.

And the inhibition at 10 µM [4]?
Its inhibition at 10 µM is 2.73%.

What about the inhibition at 10 µM [5] of the same molecule?
The inhibition at 10 µM was -5.3%.

What about the inhibition at 10 µM [6] of the same molecule?
Its inhibition at 10 µM is 4.99%.

What about the inhibition at 10 µM [7] of the same molecule?
Its inhibition at 10 µM is 19.5%.

And the inhibition at 10 µM [8]?
Its inhibition at 10 µM is -1.74%.

And the inhibition at 10 µM [9]?
Its inhibition at 10 µM is 4.01%.

What about the inhibition at 10 µM [10] of the same molecule?
The inhibition at 10 µM was 7.03%.

What about the inhibition at 10 µM [11] of the same molecule?
Its inhibition at 10 µM is 31.1%.

What about the inhibition at 10 µM [12] of the same molecule?
The inhibition at 10 µM was -2.02%.

What about the inhibition at 10 µM [13] of the same molecule?
The inhibition at 10 µM was -3.23%.

And the inhibition at 10 µM [14]?
The inhibition at 10 µM was -11.7%.

What about the inhibition at 10 µM [15] of the same molecule?
Its inhibition at 10 µM is 3.39%.

What about the inhibition at 10 µM [16] of the same molecule?
The inhibition at 10 µM was -4.81%.

And the inhibition at 10 µM [17]?
Its inhibition at 10 µM is 4.81%.

What about the inhibition at 10 µM [18] of the same molecule?
Its inhibition at 10 µM is 15.3%.

And the inhibition at 10 µM [19]?
Its inhibition at 10 µM is -2.66%.

And the inhibition at 10 µM [20]?
The inhibition at 10 µM was -3.02%.

And the inhibition at 10 µM [21]?
The inhibition at 10 µM was 40.4%.
